Test results published in paper PMC5460289, “Identification of New Shikonin Derivatives as Antitumor Agents Targeting STAT3 SH2 Domain” (Scientific Reports, 2017).

Legend:
Assay type in all cases: cell-based, human
[1] = system: Bcl-2, Bcl-xL, survivin and cyclin D1 in MDA-MB-231 cells; assay: Western blot of STAT3 downstream target genes expression; conditions: MDA-MB-231, 24 h
Experimental: Figure 7 MDA-MB-231 cells were treated with indicated concentrations of PMM-172 or Stattic for 24 h, the expression levels of STAT3 in cytoplasmic and nuclear extracts were examined and relative expression levels were analyzed by Image J software. β-actin and Lamin B1 served as markers of cytoplasmic and nuclear extractions, respectively. […] (C) MCF-10A cells were treated with the indicated concentrations of PMM-172 for 24 h. PMM-172 had no effect on the level of the pSTAT3 level in MCF-10A cells. […] Data were shown as mean ± SD from three independent experiments, **P < 0.01. Cropped blots/gels were used in the figure and the gels had been run under the same experimental conditions; the full-length blots/gels are presented in Supplementary Figure S3.
STAT3 target genes are vital to the dysfunctional biology processes induced by the aberrantly activated STAT3. Therefore, we investigated whether PMM-172 suppresses the expression of STAT3-regulated genes related to cell survival, proliferation and apoptosis in MDA-MB-231 cells.
Cells were rinsed twice with cold PBS and then lysed with RIPA buffer containing a protease inhibitor mixture at 1:100 dilution on ice for 30 min. Insoluble components of cell lysates were removed by centrifugation (4 °C, 12000 rmp, 10 min), and protein concentrations were measured using a Pierce BCA protein assay kit. […]

[2] = system: MDA-MB-231 cells; assay: Mitochondrial transmembrane potential by JC-1 staining; conditions: 4 h treatment, control 92.3%
Experimental: Subsequently, the mitochondrial transmembrane potential was monitored using JC-1 staining. […] Red fluorescence represents the mitochondrial aggregate form of JC-1 with high ∆Ψm in normal cells. Green fluorescence represents the monomeric form of JC-1 with low ∆Ψm in apoptotic cells.
Figure 5 Mitochondrial transmembrane potential was analysed in PMM-172-treated MDA-MB-231 cells by JC-1 staining. TEXT PRINTED IN THE PICTURE: no label printed: Q1 1.74% (0 μM); Q2 92.3% (0 μM); Q4 0.011% (0 μM); Q3 5.94% (0 μM); Q1 1.88% (2 μM); Q2 73.3% (2 μM); Q4 0.179% (2 μM); Q3 24.6% (2 μM); Q1 1.88% (4 μM); Q2 64.6% (4 μM); Q4 0.227% (4 μM); Q3 33.3% (4 μM); Q1 0.436% (8 μM); Q2 21.3% (8 μM); Q4 0.016% (8 μM); Q3 78.2% (8 μM) DOUBTS OF THE COPYIST ABOUT THIS PICTURE: The picture prints no label for the substance; the plots are told apart only by concentration (0, 2, 4, 8 μM), and the 0 μM plot is the untreated control. / The quadrant percentages are printed very small, so 3, 5, 6, 8 and 9 cannot be told apart with certainty and all readings are best readings: 0 μM: Q1 1.74%, Q2 92.3%, Q3 5.94%, Q4 0.011%; 2 μM: Q1 1.88%, Q2 73.3%, Q3 24.6%, Q4 0.179%; 4 μM: Q1 1.88%, Q2 64.6%, Q3 33.3%, Q4 0.227%; 8 μM: Q1 0.436%, Q2 21.3%, Q3 78.2%, Q4 0.016% […]

[3] = system: pSTAT3 (Tyr705) in MDA-MB-231 cells; assay: Western blot of constitutive STAT3 activation
Text: It has been well recognized that the aberrant activation of STAT3 contributes to malignant transformation and tumorgenesis, and its activity is ultimately dependent upon phosphorylation of residue Y705. […] In this study, the ability of PMM-172 and Stattic inhibiting the constitutive STAT3 activation in MDA-MB-231 cells was investigated. […] We further measured STAT3 phosphorylation at Tyr705 in a time-course experiment.
Figure 6 (A) PMM-172 suppressed constitutive pSTAT3 (Tyr705) in a dose-dependent manner. (B) PMM-172 suppressed constitutive pSTAT3 (Tyr705) in a time-dependent manner. (C) MDA-MB-231 cells were treated with IL-6 (20 ng/mL) or vehicle for 30 min, with or without pretreatment with PMM-172 (2 μM) for 24 h. PMM-172 inhibited IL-6 induced phosphorylation of STAT3. (D) Stattic suppressed constitutive pSTAT3 (Tyr705) in a dose-dependent manner. (E) Stattic suppressed constitutive pSTAT3 (Tyr705) in a time-dependent manner. (F) Tyrosine phosphorylation of two STAT family proteins STAT1 and STAT5 were detected with specific antibodies. […] Data were shown as mean ± SD of three independent experiments. *P < 0.05, **P < 0.01. Cropped blots/gels were used in the figure and the gels had been run under the same experimental conditions; the full-length blots/gels are presented in Supplementary Figure S2.
Cells were rinsed twice with cold PBS and then lysed with RIPA buffer containing a protease inhibitor mixture at 1:100 dilution on ice for 30 min. Insoluble components of cell lysates were removed by centrifugation (4 °C, 12000 rmp, 10 min), and protein concentrations were measured using a Pierce BCA protein assay kit. Proteins were separated by sodium dodecyl sulfate-polyacrylamide gel electrophoresis (SDS-PAGE) and transferred from the gel onto polyvinylidene difluoride (PVDF) membranes. The membranes were blocked with 5% skim milk in TBST buffer for 1 h at room temperature, and then incubated with corresponding primary antibodies diluted in 5% milk-TBST solution at 4 °C with gentle shaking overnight. After washing five times (5 min each), corresponding HRP-conjugated secondary antibodies were incubated for 1 h at room temperature. Immunoreactive bands were visualized using an ECL detection kit (Invitrogen, USA) following the manufacturer’s instruction.

## COc1cc(OC)cc(-c2nnc(SCC(=O)O[C@H](CC=C(C)C)C3=CC(=O)c4c(O)ccc(O)c4C3=O)o2)c1 [PMM-172, (R)-1-(5,8-dihydroxy-1,4-dioxo-1,4-dihydronaphthalen-2-yl)-4-methylpent-3-en-1-yl 2-((5-(3,5-dimethoxyphenyl)-1,3,4-oxadiazol-2-yl)thio)acetate]
[1]
  expression of STAT3 target genes Bcl-2, Bcl-xL, survivin and cyclin D1: down-regulated the expression of Bcl-2, Bcl-xL, survivin and cyclin D1 in a dose-dependent manner
[2]; 4 μM
  JC-1 quadrant Q2 (ratio of cells with high membrane potential): 64.6%
[2]; 8 μM
  JC-1 quadrant Q2 (ratio of cells with high membrane potential): 21.3%
[3]
  STAT3 expression: had no effect on STAT3 expression
  STAT3 phosphorylation at Tyr705, time-course: reduced with the longer treatment
  level of Y705-phosphorylated STAT3 (constitutive), dose series: could reduce the level of Y705-phosphorylated STAT3 in MDA-MB-231 cells in a dose-dependent manner
